Assay results: the CheMixHub viscosity set
± gives the uncertainty stated by the source.

Assay: xn = mol fraction of the nth substance listed
Conditions: 101 kPa

CC(C)=O + O
Conditions | viscosity [mPa·s]
293.15 K, x1 = 0.047 | 1.328 ± 0.023
293.15 K, x1 = 0.095 | 1.549 ± 0.026
293.15 K, x1 = 0.124 | 1.586 ± 0.027
293.15 K, x1 = 0.152 | 1.588 ± 0.027
293.15 K, x1 = 0.192 | 1.504 ± 0.026
293.15 K, x1 = 0.328 | 1.129 ± 0.02
293.15 K, x1 = 0.49 | 0.746 ± 0.014
293.15 K, x1 = 0.687 | 0.497 ± 0.01
293.15 K, x1 = 0.85 | 0.404 ± 0.009
298.15 K, x1 = 0.0201 | 1.047 ± 0.0088
298.15 K, x1 = 0.2 | 1.343 ± 0.02
298.15 K, x1 = 0.4 | 0.88 ± 0.0089
298.15 K, x1 = 0.6 | 0.543 ± 0.014
298.15 K, x1 = 0.8 | 0.372 ± 0.027
303.15 K, x1 = 0.047 | 1.027 ± 0.018
303.15 K, x1 = 0.095 | 1.179 ± 0.02
303.15 K, x1 = 0.124 | 1.214 ± 0.021
303.15 K, x1 = 0.152 | 1.212 ± 0.021
303.15 K, x1 = 0.192 | 1.148 ± 0.02
303.15 K, x1 = 0.328 | 0.901 ± 0.016
303.15 K, x1 = 0.49 | 0.625 ± 0.012
303.15 K, x1 = 0.687 | 0.435 ± 0.009
303.15 K, x1 = 0.85 | 0.367 ± 0.008
308.15 K, x1 = 0.0499 | 0.9532 ± 0.0081
308.15 K, x1 = 0.0702 | 1.015 ± 0.0083
308.15 K, x1 = 0.1 | 1.064 ± 0.0086
308.15 K, x1 = 0.12 | 1.08 ± 0.0087
308.15 K, x1 = 0.1499 | 1.084 ± 0.0087
308.15 K, x1 = 0.1701 | 1.069 ± 0.0086
308.15 K, x1 = 0.1999 | 1.039 ± 0.0085
308.15 K, x1 = 0.22 | 1.012 ± 0.0083
308.15 K, x1 = 0.2499 | 0.9681 ± 0.0081
308.15 K, x1 = 0.2701 | 0.9345 ± 0.0079
308.15 K, x1 = 0.3001 | 0.8823 ± 0.0076
308.15 K, x1 = 0.3499 | 0.7933 ± 0.0071
308.15 K, x1 = 0.4 | 0.7101 ± 0.0067
308.15 K, x1 = 0.4502 | 0.6353 ± 0.0063
308.15 K, x1 = 0.5001 | 0.5698 ± 0.006
308.15 K, x1 = 0.6 | 0.4627 ± 0.0054
308.15 K, x1 = 0.7 | 0.3849 ± 0.0051
308.15 K, x1 = 0.7999 | 0.3262 ± 0.0049
308.15 K, x1 = 0.9 | 0.2729 ± 0.0047
313.15 K, x1 = 0.0201 | 0.7526 ± 0.0071
313.15 K, x1 = 0.047 | 0.826 ± 0.014
313.15 K, x1 = 0.0499 | 0.8529 ± 0.0075
313.15 K, x1 = 0.0702 | 0.9032 ± 0.0077
313.15 K, x1 = 0.095 | 0.929 ± 0.016
313.15 K, x1 = 0.1 | 0.9489 ± 0.0079
313.15 K, x1 = 0.12 | 0.961 ± 0.008
313.15 K, x1 = 0.124 | 0.945 ± 0.016
313.15 K, x1 = 0.1499 | 0.9659 ± 0.008
313.15 K, x1 = 0.152 | 0.955 ± 0.017
313.15 K, x1 = 0.1701 | 0.9492 ± 0.0079
313.15 K, x1 = 0.192 | 0.908 ± 0.016
313.15 K, x1 = 0.1999 | 0.9232 ± 0.0078
313.15 K, x1 = 0.22 | 0.9029 ± 0.0077
313.15 K, x1 = 0.2499 | 0.8658 ± 0.0075
313.15 K, x1 = 0.2701 | 0.8358 ± 0.0074
313.15 K, x1 = 0.3001 | 0.792 ± 0.0071
313.15 K, x1 = 0.328 | 0.737 ± 0.013
313.15 K, x1 = 0.3499 | 0.7155 ± 0.0067
313.15 K, x1 = 0.4 | 0.6429 ± 0.0063
313.15 K, x1 = 0.4502 | 0.5785 ± 0.006
313.15 K, x1 = 0.49 | 0.536 ± 0.01
313.15 K, x1 = 0.5001 | 0.5234 ± 0.0057
313.15 K, x1 = 0.6 | 0.4276 ± 0.0053
313.15 K, x1 = 0.687 | 0.386 ± 0.008
313.15 K, x1 = 0.7 | 0.361 ± 0.005
313.15 K, x1 = 0.7999 | 0.302 ± 0.0048
313.15 K, x1 = 0.85 | 0.333 ± 0.007
313.15 K, x1 = 0.9 | 0.2597 ± 0.0047
318.15 K, x1 = 0.0201 | 0.6793 ± 0.0066
318.15 K, x1 = 0.0499 | 0.7678 ± 0.007
318.15 K, x1 = 0.0702 | 0.8166 ± 0.0072
318.15 K, x1 = 0.1 | 0.8463 ± 0.0074
318.15 K, x1 = 0.12 | 0.8495 ± 0.0074
318.15 K, x1 = 0.1499 | 0.8555 ± 0.0074
318.15 K, x1 = 0.1701 | 0.8465 ± 0.0074
318.15 K, x1 = 0.1999 | 0.8249 ± 0.0073
318.15 K, x1 = 0.22 | 0.8044 ± 0.0072
318.15 K, x1 = 0.2499 | 0.7773 ± 0.007
318.15 K, x1 = 0.2701 | 0.7529 ± 0.0069
318.15 K, x1 = 0.3001 | 0.7134 ± 0.0067
318.15 K, x1 = 0.3499 | 0.6478 ± 0.0064
318.15 K, x1 = 0.4 | 0.5851 ± 0.006
318.15 K, x1 = 0.4502 | 0.5251 ± 0.0057
318.15 K, x1 = 0.5001 | 0.476 ± 0.0055
318.15 K, x1 = 0.6 | 0.3869 ± 0.0051
318.15 K, x1 = 0.7 | 0.3317 ± 0.0049
318.15 K, x1 = 0.7999 | 0.2774 ± 0.0048
318.15 K, x1 = 0.9 | 0.2431 ± 0.0046
323.15 K, x1 = 0.047 | 0.746 ± 0.013
323.15 K, x1 = 0.095 | 0.834 ± 0.015
323.15 K, x1 = 0.124 | 0.853 ± 0.015
323.15 K, x1 = 0.152 | 0.859 ± 0.015
323.15 K, x1 = 0.192 | 0.808 ± 0.014
323.15 K, x1 = 0.328 | 0.682 ± 0.012
323.15 K, x1 = 0.49 | 0.499 ± 0.01
323.15 K, x1 = 0.687 | 0.367 ± 0.008
323.15 K, x1 = 0.85 | 0.32 ± 0.007
